Reference: US20120065231A1, “THIOPHENE DERIVATIVE” (SUMITOMO CHEMICAL COMPANY LTD., priority 2009, published 2012)
Like-named read-outs stand apart in the source and are kept apart here.

Tests used:
androgen receptor = molecular target: T1, androgen receptor (Homo sapiens, UniProt P10275, DEL75-80/DUP470-473); assay: Androgen receptor agonist activity by reporter gene assay method; type: cell-based
T1 construct: expressed in transfected cells; host or cells: human-derived CHP212 cells, stably transformed with pGL3-TATA-3xARE and pRC/RSV-hAR Kozak
T1 sequence (P10275 with tags, fused parts or gaps DEL75-80/DUP470-473): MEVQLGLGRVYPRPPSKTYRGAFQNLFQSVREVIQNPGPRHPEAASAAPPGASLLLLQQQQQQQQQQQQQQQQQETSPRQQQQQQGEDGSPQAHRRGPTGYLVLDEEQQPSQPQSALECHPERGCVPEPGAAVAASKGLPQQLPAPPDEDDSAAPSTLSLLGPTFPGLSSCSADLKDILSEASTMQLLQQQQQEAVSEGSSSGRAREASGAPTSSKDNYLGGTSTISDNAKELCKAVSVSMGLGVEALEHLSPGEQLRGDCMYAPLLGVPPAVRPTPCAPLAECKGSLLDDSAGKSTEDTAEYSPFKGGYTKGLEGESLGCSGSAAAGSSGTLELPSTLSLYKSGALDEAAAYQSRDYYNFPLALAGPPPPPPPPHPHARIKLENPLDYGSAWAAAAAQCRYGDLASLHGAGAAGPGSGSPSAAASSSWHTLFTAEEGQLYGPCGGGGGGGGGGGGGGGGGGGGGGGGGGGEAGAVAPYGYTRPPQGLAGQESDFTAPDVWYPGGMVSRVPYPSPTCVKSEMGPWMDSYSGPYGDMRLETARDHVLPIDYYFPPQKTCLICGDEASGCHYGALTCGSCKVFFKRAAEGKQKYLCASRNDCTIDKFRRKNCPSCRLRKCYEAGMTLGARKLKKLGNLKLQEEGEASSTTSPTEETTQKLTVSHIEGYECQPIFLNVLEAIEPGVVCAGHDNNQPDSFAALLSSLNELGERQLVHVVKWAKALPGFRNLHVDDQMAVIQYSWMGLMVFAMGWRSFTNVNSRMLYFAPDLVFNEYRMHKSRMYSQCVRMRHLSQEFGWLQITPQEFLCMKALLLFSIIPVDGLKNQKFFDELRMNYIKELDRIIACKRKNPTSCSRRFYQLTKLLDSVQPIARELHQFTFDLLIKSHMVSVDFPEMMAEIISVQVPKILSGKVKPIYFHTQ
Method: After shaking for 10 minutes, the luciferase activity was measured by EnVision 2103 Multilabel Reader (PerkinElmer Co., Ltd.).

[1] = Test of S9 metabolism stability in human; type: in vitro ADME; conditions: human S9, NADPH, 37° C., reaction time 30 min
Method: (§1) For the inventive compound, was carried out test of a S9 metabolism stability in human, rat and mouse.
(§2) Using MINISORP(75×12) NUNC-IMMUNO tube, a 0.5 μM I.S.-added reaction stopping solution (500 μL) and a 10 mmol/L NADPH solution (50 μL) were mixed. Subsequently, a S9 mixture (445 μL) and pure water (5 μL) were added to prepare an I.S.-added blank sample. Likewise, a S9 mixture (445 μL) and a 100 μM test substance solution (5 μL) were added, preparing an calibration curve sample.
(§3) A S9 mixture (1068 μL) was dispensed into MINISORP (75×12) NUNC-IMMUNO tube. On ice water, a 100 μM test substance solution (12 μL) was added, and pre-incubation was carried out at 37° C. for 5 minutes. An aliquot (450 μL) of this was fractionated, and a […] I.S.-added reaction stopping solution (500 μL) and a 10 mmol/L NADPH solution (50 μL) were added, to obtain an unreacted sample (reaction time; 0 min). To the residue after fractionation, a 10 mmol/L NADPH solution (70 μL) was added, and incubation was carried out at 37° C. for 30 minutes, and an aliquot (500 μL) was fractionated, then, a 0.5 μM I.S.-added reaction stopping solution (500 μL) was added, preparing a reacted sample (reaction time; 30 min). […]

[2] = Test of S9 metabolism stability in rat; type: in vitro ADME; conditions: rat S9, NADPH, 37° C., reaction time 30 min
Method: as §1, §2, §3

[3] = Test of S9 metabolism stability in mouse; type: in vitro ADME; conditions: mouse S9, NADPH, 37° C., reaction time 30 min
Method: as §1, §2, §3

[4] = agonist activity, transformed human-derived CHP212 cells with pGL3-TATA-3×ARE luciferase reporter and pRC/RSV-hAR Kozak, 24 hours, read-out: EC50

Compound	EC50 (androgen receptor; [4]) [µM]	also measured
CCCN(CC(=O)NC)c1cc(Br)c(C#N)s1 [Example 25, N2-(4-bromo-5-cyanothiophen-2-yl)-N-methyl-N2-propylglycinamide]	1.5	
CCCN(CC1CC1)c1cc(C(F)(F)F)c(C#N)s1 [Example 5, 5-[(cyclopropylmethyl)(propyl)amino]-3-(trifluoromethyl)thiophene-2-carbonitrile]		EC50 (androgen receptor): 0.0119 µM
N#Cc1sc(N2CCCCC2C(O)C(F)(F)F)cc1Br (stereo not drawn)		Residual ratio (%) human [1]: 73.4%; Residual ratio (%) rat [2]: 40.1%; Residual ratio (%) mouse [3]: 39.1%
N#Cc1sc(N2CCCCC2C(O)C(F)(F)F)cc1Br (racemic) [Example 40, 3-bromo-5-[2-(2,2,2-trifluoro-1-hydroxyethyl)piperidin-1-yl]thiophene-2-carbonitrile]	0.014	
CC1CCN(c2cc(Br)c(C#N)s2)CC1 [Example 12, 3-bromo-5-(4-methylpiperidin-1-yl)thiophene-2-carbonitrile]	1.5	
CCCN(CC(F)(F)F)c1cc(C)c(C#N)s1 [Example 46, 5-[(propyl)(2,2,2-trifluoroethyl)amino]-3-methylthiophene-2-carbonitrile]		EC50 (androgen receptor): 0.0252 µM
CCCN(CC1CC1)c1cc(Br)c(C=O)s1 [Example 1, 3-bromo-5-[(cyclopropylmethyl)(propyl)amino]thiophene-2-carbaldehyde]	> 10	
CCCN(CC(F)(F)F)c1cc(C(F)(F)F)c(C#N)s1 [Example 45, 5-[(propyl)(2,2,2-trifluoroethyl)amino]-3-trifluoromethylthiophene-2-carbonitrile]		EC50 (androgen receptor): 0.0031 µM
CCCN(CC1CC1)c1cc(C#N)c(C(F)(F)F)s1 [Example 7, 5-[(cyclopropylmethyl)(propyl)amino]-2-(trifluoromethyl)thiophene-3-carbonitrile]		EC50 (androgen receptor): 0.0993 µM
N#Cc1sc(N2CCCCC2C#N)cc1Br (stereo not drawn) [Example 47, 5-(2-cyanopiperidin-1-yl)-3-bromo-thiophene-2-carbonitrile]	1.5	
CCCC1CCCCN1c1cc(Br)c(C#N)s1 (stereo not drawn) [Example 18, 3-bromo-5-(2-propylpiperidin-1-yl)thiophene-2-carbonitrile]	0.0362	
CC1CCCCN1c1cc(Br)c(C#N)s1 (stereo not drawn) [Example 9, 3-bromo-5-(2-methylpiperidin-1-yl)thiophene-2-carbonitrile]	0.45	
N#Cc1sc(N2CCCC2)cc1Br [Example 8, 3-bromo-5-(pyrrolidin-1-yl)thiophene-2-carbonitrile]	1.4	
CCCN(CC(F)(F)F)c1cc(Br)c(C#N)s1 [Example 23, 3-bromo-5-[(propyl)(2,2,2-trifluoroethyl)amino]thiophene-2-carbonitrile]		EC50 (androgen receptor): 0.0054 µM
CCCN(CC1OCCO1)c1cc(Br)c(C#N)s1 [Example 31, 3-bromo-5-[(1,3-dioxolan-2-ylmethyl)(propyl)amino]thiophene-2-carbonitrile]	0.75	
N#Cc1sc(N2CCCCC2C(O)C(F)(F)F)cc1C(F)(F)F (stereo not drawn) [Example 43, 5-[2-(2,2,2-trifluoro-1-hydroxyethyl)piperidin-1-yl]-3-trifluoromethyl-thiophene-2-carbonitrile]		EC50 (androgen receptor): > 10 µM

More lines, main results first:

EC50 (androgen receptor; [4]) [µM]	Compound	also measured
1.2	CC(C)CN(C)c1cc(Br)c(C#N)s1 [Example 13, 3-bromo-5-[(methyl)(2-methylpropyl)amino]thiophene-2-carbonitrile]	
> 10	CCCN(CC(=O)OCC)c1cc(Br)c(C#N)s1 [Example 24, N-(4-bromo-5-cyanothiophen-2-yl)-N-propylglycine ethyl ester]	
0.56	CC(O)C1CCCCN1c1cc(Br)c(C#N)s1 (stereo not drawn) [Example 41, 3-bromo-5-[2-(1-hydroxyethyl)piperidin-1-yl]thiophene-2-carbonitrile]	
> 10	CCCN(CC=O)c1cc(Br)c(C#N)s1 [Example 32, 3-bromo-5-[(2-oxoethyl)(propyl)amino]thiophene-2-carbonitrile]	
> 10	CCC1CCCC(=O)N1c1cc(Br)c(C#N)s1 (stereo not drawn) [Example 35, 3-bromo-5-(2-ethyl-6-oxopiperidin-1-yl)thiophene-2-carbonitrile]	
0.0049	CCC1CCCCN1c1cc(Br)c(C#N)s1 (stereo not drawn) [Example 17, 3-bromo-5-(2-ethylpiperidin-1-yl)thiophene-2-carbonitrile]	
1.6	COCCN(CCOC)c1cc(Br)c(C#N)s1 [Example 16, 5-[bis(2-methoxyethyl)amino]-3-bromothiophene-2-carbonitrile]	
0.0433	CCCN(CCC)c1cc(Br)c(C#N)s1 [Example 14, 3-bromo-5-(dipropylamino)thiophene-2-carbonitrile]	
0.0106	CCCN(CC1CC1)c1cc(Br)c(C#N)s1 [Example 2, 3-bromo-5-[(cyclopropylmethyl)(propyl)amino]thiophene-2-carbonitrile]	
0.58	CCCN(CC#N)c1cc(Br)c(C#N)s1 [Example 28, 3-bromo-5-[(cyanomethyl)(propyl)amino]thiophene-2-carbonitrile]	
> 10	CCCN(CC(=O)O)c1cc(Br)c(C#N)s1 [Example 26, N-(4-bromo-5-cyanothiophen-2-yl)-N-propylglycine]	
0.0131	C=CCN(CC=C)c1cc(Br)c(C#N)s1 [Example 15, 3-bromo-5-(diallylamino)thiophene-2-carbonitrile]	
